Data from patent publication US7842812B2, “Substituted 5-aminomethy1-1H-pyrrole-2-carboxylic acid amides” (Gruenenthal GmbH, priority 2004, dated 2010).

What follows are compounds tested against T1, NA transporter (Rattus norvegicus, UniProt Q63380) (assay: Noradrenalin (NA) uptake inhibition in rat brain synaptosomes (hypothalamus)). Details: 10 μM.
T1 construct: from tissue; host or cells: rat brain synaptosomes (P2 fraction) from hypothalamus
T1 sequence (Q63380 1-617): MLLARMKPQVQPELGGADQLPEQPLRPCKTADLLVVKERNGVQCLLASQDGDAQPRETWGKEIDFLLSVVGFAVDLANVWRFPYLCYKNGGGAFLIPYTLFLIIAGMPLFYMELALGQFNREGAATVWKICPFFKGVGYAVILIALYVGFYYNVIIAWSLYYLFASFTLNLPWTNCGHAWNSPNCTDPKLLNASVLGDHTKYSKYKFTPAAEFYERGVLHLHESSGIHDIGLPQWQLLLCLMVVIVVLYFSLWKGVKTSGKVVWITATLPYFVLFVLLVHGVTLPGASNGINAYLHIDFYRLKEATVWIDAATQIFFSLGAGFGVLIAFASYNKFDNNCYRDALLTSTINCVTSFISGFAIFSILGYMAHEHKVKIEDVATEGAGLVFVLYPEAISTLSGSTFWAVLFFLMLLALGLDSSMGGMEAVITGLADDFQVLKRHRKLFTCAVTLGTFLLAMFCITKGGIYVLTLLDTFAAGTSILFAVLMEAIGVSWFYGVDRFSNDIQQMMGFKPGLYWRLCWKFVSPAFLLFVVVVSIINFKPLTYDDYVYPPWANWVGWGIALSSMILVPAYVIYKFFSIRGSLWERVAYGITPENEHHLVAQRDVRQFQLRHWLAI
Format: biochemical
Description: (§1) b) Method for Determining Noradrenalin and 5-HT Uptake Inhibition:
(§2) Synaptosomes from rat brain regions are freshly isolated for in vitro studies, as described in the publication “The isolation of nerve endings from brain” by E. G. Gray and V. P. Whittaker, J. Anatomy 96, pages 79-88, 1962, the disclosure of which is hereby incorporated by reference. The tissue (hypothalamus for the determination of noradrenalin uptake inhibition and medulla and pons for the determination of 5-HT uptake inhibition) is homogenized in ice-cooled 0.32 M sucrose (100 mg of tissue/1 ml) in a glass homogenizer with Teflon pestle using five complete up and down strokes at 840 revolutions/minute. The homogenate is centrifuged at 4° C. for 10 minutes at 1000 g. After subsequent centrifugation at 17000 g for 55 minutes, the synaptosomes (P2 fraction) are obtained, which are resuspended in 0.32 M […] (0.5 ml/100 mg of original weight).
The particular uptake is measured in a 96-well microtitre plate. The volume is 250 μl and the incubation proceeds at room temperature (approx. 20-25° C.) under an O2 atmosphere. The incubation time is 7.5 minutes for [^3H]-NA and 5 minutes for [^3H]-5-HT. The 96 samples are then filtered through a Unifilter GF/B® microtitre plate (Packard) and washed with […] of incubated buffer using a “Brabdel MPXRI-96T Cell-Harvester”. The Unifilter GF/B plate is dried for 1 hour at 55° C. The plate is then sealed with a Back Seal® (Packard) and 35 μl of scintillation fluid are added per well (Ultima Gold®, Packard). After sealing with a Top Seal® (Packard) and establishing an equilibrium (around 5 hours), radioactivity is determined in a “Trilux 1450 Microbeta” (Wallac).
The quantity of protein used in the above determination corresponds to the values known from the literature, as for example described in “Protein measurement with the folin phenol reagent”, Lowry et al., J. Biol. Chem., 193, 265-275, 1951. A detailed description of the method may additionally be found in the literature, for example in M. Ch. Frink, H.-H. Hennies, W. Engelberger, M. Haurand and B. Wilffert (1996) Arzneim.-Forsch./Drug Res. 46 (III), 11, 1029-1036, the disclosures of which are hereby incorporated by reference.
The following characteristics were determined for the NA or 5-HT transporter: NA uptake: Km=0.32±0.11 μM 5HT uptake: Km=0.084±0.011 μM. c) Investigation of Analgesic Efficacy by the Writhing Test
(§3) The 5-HT reuptake inhibition and noradrenalin reuptake inhibition of the 5-aminomethyl-1H-pyrrole-2-carboxylic acid amides according to the invention were determined as described above.
`CC1CCCCN1Cc1ccc(C(=O)N(Cc2ccccc2)C(C)C)n1C` (stereo not drawn) [Example 9, 1-Methyl-5-(2-methyl-piperidin-1-ylmethyl)-1H-pyrrole-2-carboxylic acid benzyl-isopropyl amide] showed an NA uptake inhibition of 59 % inhibition. `CN(C(=O)c1ccc(CN2CCC(Cc3ccccc3)CC2)n1C)C1CCCCC1` [Example 7, 5-(4-Benzyl-piperidin-1-ylmethyl)-1-methyl-1H-pyrrole-2-carboxylic acid cyclohexyl-methyl amide] was tested, and the NA uptake inhibition was 62 % inhibition. Work on “1-Methyl-5-pyrrolidin-1-ylmethyl-1H-pyrrole-2-carboxylic acid benzyl amide [Example 4]” yielded an NA uptake inhibition of 82 % inhibition. `Cn1c(CN2CCC(Cc3ccccc3)CC2)ccc1C(=O)N1CCCCC1` [Example 8, [5-(4-Benzyl-piperidin-1-ylmethyl)-1-methyl-1H-pyrrol-2-yl]-piperidin-1-yl methanone] was tested, and the NA uptake inhibition was 61 % inhibition. Compound `CCOC(=O)C1CCN(Cc2ccc(C(=O)N(Cc3ccccc3)Cc3ccccc3)n2C)CC1` [Example 6, 1-(5-Dibenzylcarbamoyl-1-methyl-1H-pyrrol-2-ylmethyl)-piperidine-4-carboxylic acid ethyl ester] has an NA uptake inhibition of 74 % inhibition. `CC1CCN(Cc2ccc(C(=O)N(C)Cc3ccccc3)n2C)CC1` [Example 1, 1-Methyl-5-(4-methyl-piperidin-1-ylmethyl)-1H-pyrrole-2-carboxylic acid benzyl-methyl amide] was tested, and the NA uptake inhibition was 81 % inhibition. Work on `CC1CCCCN1Cc1ccc(C(=O)N(C)Cc2ccccc2)n1C` (stereo not drawn) [Example 5, 1-Methyl-5-(2-methyl-piperidin-1-ylmethyl)-1H-pyrrole-2-carboxylic acid benzyl-methyl amide] yielded an NA uptake inhibition of 81 % inhibition.

The compounds below were run against T2, human μ opioid receptor (Homo sapiens, UniProt P35372) (assay: Affinity for human μ opioid receptor ([3H]-naloxone displacement, CHO-K1 membrane preparation, SPA)). Details: percentage inhibition of specific [3H]-naloxone binding; compound concentration 1 μmol/l; read-out: OR μ1 human naloxone inhibition [%].
T2 construct: purchased NEN, Zaventem, Belgium RB-HOM; host or cells: CHO-K1 cells (membrane preparation)
T2 sequence (P35372 whole entry): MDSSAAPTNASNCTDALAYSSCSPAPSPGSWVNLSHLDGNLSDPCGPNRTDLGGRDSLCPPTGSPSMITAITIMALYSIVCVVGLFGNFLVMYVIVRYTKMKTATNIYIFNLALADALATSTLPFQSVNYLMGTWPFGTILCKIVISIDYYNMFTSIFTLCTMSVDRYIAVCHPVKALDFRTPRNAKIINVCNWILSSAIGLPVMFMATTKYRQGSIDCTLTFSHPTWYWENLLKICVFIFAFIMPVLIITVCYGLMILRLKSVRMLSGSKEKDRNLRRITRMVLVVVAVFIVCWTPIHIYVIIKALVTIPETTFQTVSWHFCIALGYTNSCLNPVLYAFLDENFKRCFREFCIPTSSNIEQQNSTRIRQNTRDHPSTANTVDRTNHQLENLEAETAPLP
Method: a) Method for Determining Affinity for Human μ Opioid Receptor
Receptor affinity for the human μ opioid receptor is determined in a homogeneous batch in microtitre plates. […] Once the ninety minute incubation time had elapsed, the microtitre plates were centrifuged off for 20 minutes at 1000 g and the radioactivity measured in a β-Counter (Microbeta-Trilux, from PerkinElmer Wallac, Freiburg, Germany). The percentage displacement of the radioactive ligand from its binding to the human μ opiate receptor is determined at a concentration of the compounds to be tested of 1 μmol/l and stated as percentage inhibition of specific binding. […]
The affinity of the 5-aminomethyl-1H-pyrrole-2-carboxylic acid amides according to the invention for the μ receptor was determined as described above.
Work on `CC1CCCCN1Cc1ccc(C(=O)N2CCCCC2)n1C` (stereo not drawn) [Example 10, [1-Methyl-5-(2-methyl-piperidin-1-ylmethyl)-1H-pyrrol-2-yl]-piperidin-1-yl methanone] yielded an inhibition at 1 µM of 86%. In the case of `CC1CCCCN1Cc1ccc(C(=O)N2CCCC2)n1C` (stereo not drawn) [Example 3, [1-Methyl-5-(2-methyl-piperidin-1-ylmethyl)-1H-pyrrol-2-yl]-pyrrolidin-1-yl methanone], the inhibition at 1 µM is reported as 83%.

The compounds below were run against T3, 5-HT transporter (Rattus norvegicus, UniProt P31652) (assay: 5-HT uptake inhibition in rat brain synaptosomes (medulla and pons)). Details: 10 μM.
T3 construct: from tissue; host or cells: rat brain synaptosomes (P2 fraction) from medulla and pons
T3 sequence (P31652 whole entry): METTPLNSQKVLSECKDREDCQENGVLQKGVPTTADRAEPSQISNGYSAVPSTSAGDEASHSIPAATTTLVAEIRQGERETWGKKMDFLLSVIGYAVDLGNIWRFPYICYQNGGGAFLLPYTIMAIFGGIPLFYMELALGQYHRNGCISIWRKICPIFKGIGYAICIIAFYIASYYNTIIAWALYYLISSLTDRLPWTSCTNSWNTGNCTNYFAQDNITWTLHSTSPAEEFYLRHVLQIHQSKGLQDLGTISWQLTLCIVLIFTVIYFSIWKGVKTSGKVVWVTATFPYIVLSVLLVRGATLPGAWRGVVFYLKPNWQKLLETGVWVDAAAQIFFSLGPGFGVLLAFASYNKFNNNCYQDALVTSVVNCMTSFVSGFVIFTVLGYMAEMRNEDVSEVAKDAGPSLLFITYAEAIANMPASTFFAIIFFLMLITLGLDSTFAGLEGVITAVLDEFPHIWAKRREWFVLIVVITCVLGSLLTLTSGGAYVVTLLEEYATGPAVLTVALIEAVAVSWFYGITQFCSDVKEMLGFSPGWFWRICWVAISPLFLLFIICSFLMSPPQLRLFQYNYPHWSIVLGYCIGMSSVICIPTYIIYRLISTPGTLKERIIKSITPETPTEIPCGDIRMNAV
Format: biochemical
Description: as §1, §2
The particular uptake is measured in a 96-well microtitre plate. The volume is 250 μl and the incubation proceeds at room temperature (approx. 20-25° C.) under an O2 atmosphere. The incubation time is 7.5 minutes for [^3H]-NA and 5 minutes for [^3H]-5-HT. The 96 samples are then filtered through a Unifilter GF/B® microtitre plate (Packard) and washed with […] of incubated buffer using a “Brabdel MPXRI-96T Cell-Harvester”. The Unifilter GF/B plate is dried for 1 hour at 55° C. […] After sealing with a Top Seal® (Packard) and establishing an equilibrium (around 5 hours), radioactivity is determined in a “Trilux 1450 Microbeta” (Wallac).
The quantity of protein used in the above determination corresponds to the values known from the literature, as for example described in “Protein measurement with the folin phenol reagent”, Lowry et al., J. Biol. Chem., 193, 265-275, 1951. […]
as §3
Compound `Cn1c(CN2CCCCCC2)ccc1C(=O)N1CCCC1` [Example 2, (5-Azepan-1-ylmethyl-1-methyl-1H-pyrrol-2-yl)-pyrrolidin-1-yl methanone] has a 5HT uptake inhibition of 60 % inhibition. In the case of `CC1CCCCN1Cc1ccc(C(=O)N2CCCC2)n1C` (stereo not drawn) [Example 3, [1-Methyl-5-(2-methyl-piperidin-1-ylmethyl)-1H-pyrrol-2-yl]-pyrrolidin-1-yl methanone], the 5HT uptake inhibition is reported as 52 % inhibition. `CC1CCN(Cc2ccc(C(=O)N(C)Cc3ccccc3)n2C)CC1` [Example 1, 1-Methyl-5-(4-methyl-piperidin-1-ylmethyl)-1H-pyrrole-2-carboxylic acid benzyl-methyl amide] gave a 5HT uptake inhibition of 70 % inhibition.
